Measured values as given in EP2949653A1, “ISOXAZOLE DERIVATIVES AS LEUKOTRIENE BIOSYNTHESIS INHIBITORS” (Banoglu, Erden, priority 2014, dated 2015).

Legend:
5-LO plus FLAP = molecular target: T1, 5-LO plus FLAP (Homo sapiens, UniProt P20292); test: 5-LO mediated product synthesis in HEK293 cells transfected with 5-LO plus FLAP; type: cell-based; conditions: 2.5 µM A23187 plus 3 µM AA (Figure 7)
T1 construct: expressed in transfected cells; host or cells: HEK293 (stably transfected)
T1 sequence (P20292 1-161): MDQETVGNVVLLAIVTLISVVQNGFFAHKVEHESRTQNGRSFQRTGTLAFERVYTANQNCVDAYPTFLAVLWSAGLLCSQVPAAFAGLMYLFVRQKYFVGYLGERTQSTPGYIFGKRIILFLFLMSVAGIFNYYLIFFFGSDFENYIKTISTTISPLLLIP
Description: Compound 9hj inhibited 5-LO mediated product synthesis in HEK293 cells transfected with only 5-LO, with IC50 of 900 nM. […] After preincubation of cells with 9hj for 15 min at 37°C, cells were stimulated with 2.5 µM A23187 plus 3 µM AA for 10 min at 37°C. Data are expressed as percentage of vehicle control (0.1% DMSO). 100% controls correspond to 157.48 ng mL^-1 for 5-LO transfected cells and 155.15 ng mL^-1 for 5-LO plus FLAP transfected cells.

[1] = system: zymosan-induced peritonitis; test: Zymosan-induced peritonitis in mice; type: in vivo; conditions: i.p., male mice, 30 min before zymosan; LTC4 levels in peritoneal exudate (Figure 9)
Description: Cell based and cell-free assays carried out in biological studies, immunofluorescence microscopy analysis and zymosan-induced peritonitis in mice are performed as described hereinabove (Pegola, C. and et al., British J. Pharmacology, 2014, D01:10.1111/bph.12625). In the cell based assays (intact neutrophils or monocytes), 5-LO mediated product formation is started, after pre-incubation with test compounds (or control DMSO) for 15 min. at 37 °C, with addition of Ca-ionophore A23187 (2.5 µM) to the fresh 5 x 10^6 neutrophils or monocytes suspended in 1 ml of PGC buffer (phosphate buffered saline (PBS) solution containing 1 mg ml^-1 glucose and 1mM CaCl2, pH 7.4). After the incubation for 10 min. at 37 °C, the reaction is ended with addition of 1 ml of methanol, and 30 µL 1 N HCl, 200 ng prostaglandin B1 and 500 µL PBS are added to the mixture. […] Resulting 5-LO mediated products are extracted and analysed by the known method of high pressure liquid chromatography (HPLC) (Pergola, C. Proc Natl. Acad. Sci. U.S.A. 2008, 105, 19881). 5-LO mediated product formation (LTB4 and all trans isomers, and 5 (S)-hydro(pero)xy-6-trans-8, 11, 14-cis-eicosatetraenoic acid, 5-H(p)ETE) is expressed as ng per 10^6 cell. Cysteinyl-LTs have not been analyzed because that the amount of C4, D4 and E4 and LTB4 oxidation products are below the detection limit. […]

[2] = system: 5-LO mediated product synthesis; test: 5-LO mediated product synthesis in neutrophils under cell-stress (NaCl or diamide); type: cell-based; conditions: in the presence of cell-stress (0.3 M NaCl or 0.25 mM diamide), human neutrophils (Figure 4A-B)
Description: Inhibitory activity of compound 9hj on 5-LO mediated product synthesis in human neutrophils is shifted to the right by factor 10 in the presence of cell-stress (i.e., 0.3 M NaCl or 0.25 mM diamide), which is typical for non-redox type 5-LO inhibitors or FLAP inhibitors (Figure 4A-B). To intact neutrophils, 0.3 M sodium chloride (NaCl) or vehicle (DMSO) was added 3 min before addition of 9hj at 37°C. After addition of 9hj for another 10 min at 37°C, cells were stimulated with 20 µM AA for 10 min at 37°C. Data are expressed as percentage of vehicle control (0.1% DMSO). 100% controls correspond to 174.41 ng mL^-1 for 0.3 M NaCl and 50.73 ng mL^-1 for control (DMSO) (Figure 4A). To intact neutrophils, 0.25 mM diamide or vehicle (DMSO) was added 5 min before addition of 9hj at 37°C (Figure 4b). After addition of 9hj for another 15 min at 37°C, cells were stimulated with 2.5 µM A23187 plus 20 µM AA for 10 min at 37°C. Data are expressed as percentage of vehicle control (0.1% DMSO). 100% controls correspond to 1148.61 ng mL^-1 for 0.25 mM diamide and 802.06 ng mL^-1 for control (DMSO) (Figure 4B).

IC50 (5-LO plus FLAP): 310 nM
Compound: O=C(O)c1noc(-c2ccc(OCc3ccc4ccccc4n3)cc2)c1-c1ccc(Cl)cc1 [Compound 9hj, 4-(4-Chlorophenyl)-5-(4-(quinolin-2-ylmethoxy)phenyl)isoxazole-3-carboxylic acid]
ID50 zymosan-induced peritonitis [1]: 7 mg/kg
Inhibitory activity shifted to the right by factor [2]: 10
